The subject of assay [1] is JAK2, TYK2/p-STAT4 (Tyr693) activated by IL-12 in NK-92 cell line. The experiment in a line: IL-12-JAK2, TYK2/p-STAT4 (Tyr693) inhibition cellular assay. In kind it is cell-based. Conditions: for IC50: NK92, 0.5 h, read-out: Cellular assay pSTAT4/IL-12 IC50; for Cellular assay Selectivity fold (TYK2/JAK1): pSTAT4/IL-12 vs pSTAT3/IL-6 cellular IC50. An outline of the steps: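 NK-92 cells were starved overnight without IL-2 and seeded at 5×10^4 per well in 1640 medium with 0.1% BSA. Lysate p-STAT4 (Tyr693) was measured by AlphaLISA SureFire, and IC50 was fitted with a 4-parameter logistic model.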

Assay [2] has as its system JAK1/p-STAT3(Tyr705) activated by IL-6 in TF-1 cell line. The experiment in a line: IL-6-JAK1/p-STAT3(Tyr705) inhibition cellular assay. In kind it is cell-based. The conditions noted are these: Homo sapiens, read-out: Cellular assay pSTAT3/IL-6 IC50.
Assay [3] deals with T1, JAK1-JH2 protein (aa 561-860, in-house) (Homo sapiens, UniProt P23458).
T1 construct: JAK1-JH2 protein (aa 561-860, in-house); made in house
In words: JAK1-JH2 biochemical assay (HTRF, blocking of JAK1-JH2 protein with its probe). It counts as binding. Conditions: 1.17 nM recombinant JAK1-JH2, Probe 2. An outline of the steps: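 HTRF probe-displacement assay using recombinant human JAK1 pseudokinase domain (aa 561-860, 1.17 nM in pre-incubation step), pre-incubated 0.5 h at room temperature with 10-dose 5-fold compound series. Buffer: 20 mM HEPES pH 7.5, 10 mM MgCl2, 0.005% BSA, 2 mM DTT, 0.015% Brij-35. IC50 by four-parameter logistic fit of 615/665 nm ratio.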

The target in assay [4] is T2, TYK2-JH2 (aa 575-869, in-house) protein (Homo sapiens, UniProt P29597).
T2 construct: TYK2-JH2 (aa 575-869, in-house) protein; made in house
The experiment in a line: TYK2-JH2 biochemical assay (HTRF, blocking of TYK2-JH2 protein with its probe). In kind it is binding. The conditions noted are these: for IC50: HTRF, 0.2 nM recombinant TYK2-JH2, Probe 1; for Biochemical assay Selectivity fold (TYK2/JAK1): TYK2-JH2 vs JAK1-JH2 biochemical IC50. The essentials:
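Recombinant TYK2-JH2 (0.2 nM) pre-incubated with compounds (10 doses, 5-fold dilutions) 0.5 h at RT in HEPES pH 7.5 buffer with MgCl2, BSA, DTT, Brij-35; biotinylated probe (10 nM working solution, KD=10 nM) plus anti-6His Tb cryptate/streptavidin-XL665 added, 1 h RT. HTRF ratio read; IC50 from four-parameter logistic fit.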

Setting [5] is: NK-92 cells, IL-12 40 ng/ml, 30 min.
[6] abbreviates: 0.5 h, TF-1 cells, IL-6 50 ng/ml, 30 min.

Where two headings read alike, the source gives them in different places.

This is an account of results in US12606556B2, “TYK-2 inhibitor” (BEIGENE, LTD., priority 2020, dated 2026).

T2 sequence (P29597 575-869): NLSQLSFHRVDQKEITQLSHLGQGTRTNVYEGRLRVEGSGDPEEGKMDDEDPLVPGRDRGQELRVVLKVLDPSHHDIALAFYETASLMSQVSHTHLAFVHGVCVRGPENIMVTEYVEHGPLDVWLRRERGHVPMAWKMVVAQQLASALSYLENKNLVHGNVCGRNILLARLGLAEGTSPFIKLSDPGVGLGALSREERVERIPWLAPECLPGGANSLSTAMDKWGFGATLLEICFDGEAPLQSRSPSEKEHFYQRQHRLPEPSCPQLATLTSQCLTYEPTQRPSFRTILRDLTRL
T1 sequence (P23458 561-860): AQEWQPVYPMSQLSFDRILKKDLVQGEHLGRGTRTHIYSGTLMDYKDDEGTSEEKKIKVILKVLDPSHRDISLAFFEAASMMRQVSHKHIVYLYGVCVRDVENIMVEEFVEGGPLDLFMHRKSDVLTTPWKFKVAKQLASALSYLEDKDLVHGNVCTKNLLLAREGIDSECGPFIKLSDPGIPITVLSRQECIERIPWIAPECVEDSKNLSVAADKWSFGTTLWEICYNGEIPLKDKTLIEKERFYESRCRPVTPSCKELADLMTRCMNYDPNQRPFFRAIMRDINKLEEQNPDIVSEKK

With `CNC(=O)c1nnc(NC(=O)C2CC2)cc1Nc1nc2ccc(C3CN(C(=O)c4ncn(C)n4)C3)cn2n1` [Example L5, 6-(cyclopropanecarboxamido)-N-methyl-4-((6-(1-(1-methyl-1H-1,2,4-triazole-3-carbonyl)azetidin-3-yl)-[1,2,4]triazolo[1,5-a]pyridin-2-yl)amino)pyridazine-3-carboxamide], the IC50 in assay [1] (setting [5]) is 2000 nM; in assay [2] (setting [6]), more than 10000 nM; in assay [3], 1.7 nM; in assay [4] it was 0.076 nM. In assay [1], the “Cellular assay Selectivity fold (TYK2/JAK1)” value is given as more than 5 fold. Moreover, the “Biochemical assay Selectivity fold (TYK2/JAK1)” value in assay [4] came to 22 fold.
As for `CNC(=O)c1nnc(NC(=O)C2CC2)cc1Nc1nc2ccc(C(=O)N3CCC3)cn2n1` [Example O1, 4-((6-(azetidine-1-carbonyl)-[1,2,4]triazolo[1,5-a]pyridin-2-yl)amino)-6-(cyclopropanecarboxamido)-N-methylpyridazine-3-carboxamide], the IC50 turned out to be 169 nM in assay [1]; 4880 nM in assay [2] (TF-1, 0.5 h); 1.06 nM in assay [3]; 0.17 nM in assay [4]. Also, the “Cellular assay Selectivity fold (TYK2/JAK1)” value in assay [1] was 28 fold. In addition, the “Biochemical assay Selectivity fold (TYK2/JAK1)” value in assay [4] worked out at 6 fold.
`CNC(=O)c1nnc(NC(=O)C2CC2)cc1Nc1nc2ccc(C3CN(S(C)(=O)=O)C3)cn2n1` [Example L1, 6-(cyclopropanecarboxamido)-N-methyl-4-((6-(1-(methylsulfonyl)azetidin-3-yl)-[1,2,4]triazolo[1,5-a]pyridin-2-yl)amino)pyridazine-3-carboxamide]: the IC50 in assay [1] (setting [5]) was 50.9 nM; in assay [2] (setting [6]), more than 10000 nM; in assay [3] it was 3.7 nM; in assay [4], 0.093 nM. In addition, in assay [1], the “Cellular assay Selectivity fold (TYK2/JAK1)” value is given as more than 196 fold. In assay [4], the “Biochemical assay Selectivity fold (TYK2/JAK1)” value turned out to be 40 fold.
In the case of `[2H]C([2H])([2H])NC(=O)c1nnc(NC(=O)C2CC2)cc1Nc1nc2ccc(N3CCC3)cn2n1` [Example E3, 4-((6-(azetidin-1-yl)-[1,2,4]triazolo [1,5-a]pyridin-2-yl)amino)-6-(cyclopropanecarbox-amido)-N-(methyl-d3) pyridazine-3-carboxamide], the IC50 in assay [1] (setting [5]) is 8.9 nM; in assay [2] (setting [6]), 4060 nM; in assay [3], 1.3 nM; in assay [4] it was 0.038 nM. Besides, the “Cellular assay Selectivity fold (TYK2/JAK1)” value in assay [1] is listed as 453 fold. Besides, the “Biochemical assay Selectivity fold (TYK2/JAK1)” value in assay [4] came out at 34 fold.
Regarding `CNC(=O)c1nnc(NC(=O)C2CC2)cc1Nc1nc2ccc(N3CCCC(N4CC(F)(F)C4)C3)cn2n1` (stereo not drawn) [Example E13, 6-(cyclopropanecar-boxamido)-4-((6-(3-(3,3-difluoroazetidin-1-yl)piperidin-1-yl)-[1,2,4]triazolo[1,5-a]pyridin-2-yl)amino)-N-methylpyridazine-3-carboxamide], the IC50 in assay [1] (setting [5]) is 15.9 nM; in assay [2] (setting [6]) it was more than 10000 nM; in assay [3] it was 2.6 nM; in assay [4] it was 0.047 nM. Further, in assay [1], the “Cellular assay Selectivity fold (TYK2/JAK1)” value is recorded as more than 629 fold. In assay [4], the “Biochemical assay Selectivity fold (TYK2/JAK1)” value is 55 fold.
Regarding `CNC(=O)c1nnc(NC(=O)C2CC2)cc1Nc1nc2ccc(N3CC(OC)C3)cn2n1` [Example E2, 6-(cyclopropanecarboxamido)-4-((6-(3-methoxyazetidin-1-yl)-[1,2,4]triazolo[1,5-a]pyridin-2-yl)amino)-N-methylpyridazine-3-carboxamide], the IC50 in assay [1] (setting [5]) was 9.01 nM; in assay [2] (setting [6]) it was 9800 nM; in assay [3] it was 1.2 nM; in assay [4], 0.047 nM. For the same molecule, in assay [1], the “Cellular assay Selectivity fold (TYK2/JAK1)” value is recorded as 1087 fold. Moreover, the “Biochemical assay Selectivity fold (TYK2/JAK1)” value in assay [4] worked out at 26 fold.
For the molecule `CNC(=O)c1nnc(NC(=O)C2CC2)cc1Nc1nc2ccc(OC3CN(S(C)(=O)=O)C3)cn2n1` [Example C3, 6-(cyclopropanecarboxamido)-N-methyl-4-((6-((1-(methylsulfonyl)azetidin-3-yl)oxy)-[1,2,4]triazolo[1,5-a]pyridin-2-yl)amino)pyridazine-3-carboxamide], the IC50 was 68.8 nM in assay [1] (setting [5]), more than 10000 nM in assay [2] (setting [6]), 1.2 nM in assay [3] and 0.08 nM in assay [4]. In addition, the “Cellular assay Selectivity fold (TYK2/JAK1)” value in assay [1] is listed as more than 145 fold. Moreover, the “Biochemical assay Selectivity fold (TYK2/JAK1)” value in assay [4] is given as 15 fold.
As for `CNC(=O)c1nnc(NC(=O)C2CC2)cc1Nc1nc2ccc(C3CN(C(C)=O)C3)cn2n1` [Example L2, 4-((6-(1-acetylazetidin-3-yl)-[1,2,4]triazolo[1,5-a]pyridin-2-yl)amino)-6-(cyclopropanecarboxamido)-N-methylpyridazine-3-carboxamide], the IC50 in assay [1] (setting [5]) is 276 nM; in assay [2] (setting [6]) it was more than 10000 nM; in assay [3], 2.6 nM; in assay [4], 0.081 nM. In assay [1], the “Cellular assay Selectivity fold (TYK2/JAK1)” value is given as more than 36 fold. In assay [4], the “Biochemical assay Selectivity fold (TYK2/JAK1)” value was 32 fold.
As for `CNC(=O)c1nnc(NC(=O)C2CC2)cc1Nc1nc2ccc(N3CC(COC)C3)cn2n1` [Example E15, 6-(cyclopropanecar-boxamido)-4-((6-(3-(methoxymethyl)azetidin-1-yl)-[1,2,4]triazolo[1,5-a]pyridin-2-yl)amino)-N-methylpyridazine-3-carboxamide], the IC50 was 8.14 nM in assay [1] (setting [5]), more than 10000 nM in assay [2] (setting [6]), 1.3 nM in assay [3] and 0.045 nM in assay [4]. The “Cellular assay Selectivity fold (TYK2/JAK1)” value in assay [1] is reported as more than 1228 fold. Further, the “Biochemical assay Selectivity fold (TYK2/JAK1)” value in assay [4] was determined as 29 fold.
With `CNC(=O)c1nnc(NC(=O)C2CC2)cc1Nc1nc2ccc(C3CN(C(=O)N4CCOCC4)C3)cn2n1` [Example L6, 6-(cyclopropanecarboxamido)-N-methyl-4-((6-(1-(morpholine-4-carbonyl)azetidin-3-yl)-[1,2,4]triazolo[1,5-a]pyridin-2-yl)amino)pyridazine-3-carboxamide], the IC50 in assay [1] (setting [5]) is 86 nM; in assay [2] (setting [6]), more than 10000 nM; in assay [3] it was 1.5 nM; in assay [4], 0.04 nM. In addition, the “Cellular assay Selectivity fold (TYK2/JAK1)” value in assay [1] was more than 117 fold. Also, the “Biochemical assay Selectivity fold (TYK2/JAK1)” value in assay [4] is recorded as 38 fold.
On to `CNC(=O)c1nnc(NC(=O)C2CC2)cc1Nc1nc2ccc(OC3CN(C4CCOC4)C3)cn2n1` (stereo not drawn) [Example D1, 6-(cyclopropanecarboxamido)-N-methyl-4-((6-((1-(tetrahydrofuran-3-yl)azetidin-3-yl)oxy)-[1,2,4]triazolo[1,5-a]pyridin-2-yl)amino)pyridazine-3-carboxamide], for which the IC50 in assay [1] (setting [5]) was 68.4 nM; in assay [2] (setting [6]), more than 10000 nM; in assay [3], 1.21 nM; in assay [4] it was 0.099 nM. The “Cellular assay Selectivity fold (TYK2/JAK1)” value in assay [1] is given as more than 146 fold. Further, the “Biochemical assay Selectivity fold (TYK2/JAK1)” value in assay [4] was determined as 12 fold.
With `CNC(=O)c1nnc(NC(=O)C2CC2)cc1Nc1nc2c(OC)cc(N3CCC3)cn2n1` [Example N1, 4-((6-(azetidin-1-yl)-8-methoxy-[1,2,4]triazolo[1,5-a]pyridin-2-yl)amino)-6-(cyclopropanecarboxamido)-N-methylpyridazine-3-carboxamide], the IC50 was 687 nM in assay [1] (setting [5]), more than 10000 nM in assay [2] (setting [6]), 1.4 nM in assay [3] and 0.87 nM in assay [4]. Also, the “Cellular assay Selectivity fold (TYK2/JAK1)” value in assay [1] is more than 14 fold. In assay [4], the “Biochemical assay Selectivity fold (TYK2/JAK1)” value stood at 2 fold.
